In patent US11040981B2, “Pyrrolotriazine compounds and methods of inhibiting TAM kinases” (Syros Pharmaceuticals, Inc., priority 2017, dated 2021):

Legend:
[1] = target: T1, MERTK (Homo sapiens, UniProt Q12866); test: TR-FRET kinase activity assay, MERTK; format: biochemical; conditions: for IC50: TR-FRET activity assay, ATP at Km, 60 minutes, read-out: Mer IC50; for FLT3/Mer ratio (FLT3 IC50/Mer IC50): ratio of Mer to FLT3: FLT3 IC50/Mer IC50
T1 sequence (Q12866 21-999): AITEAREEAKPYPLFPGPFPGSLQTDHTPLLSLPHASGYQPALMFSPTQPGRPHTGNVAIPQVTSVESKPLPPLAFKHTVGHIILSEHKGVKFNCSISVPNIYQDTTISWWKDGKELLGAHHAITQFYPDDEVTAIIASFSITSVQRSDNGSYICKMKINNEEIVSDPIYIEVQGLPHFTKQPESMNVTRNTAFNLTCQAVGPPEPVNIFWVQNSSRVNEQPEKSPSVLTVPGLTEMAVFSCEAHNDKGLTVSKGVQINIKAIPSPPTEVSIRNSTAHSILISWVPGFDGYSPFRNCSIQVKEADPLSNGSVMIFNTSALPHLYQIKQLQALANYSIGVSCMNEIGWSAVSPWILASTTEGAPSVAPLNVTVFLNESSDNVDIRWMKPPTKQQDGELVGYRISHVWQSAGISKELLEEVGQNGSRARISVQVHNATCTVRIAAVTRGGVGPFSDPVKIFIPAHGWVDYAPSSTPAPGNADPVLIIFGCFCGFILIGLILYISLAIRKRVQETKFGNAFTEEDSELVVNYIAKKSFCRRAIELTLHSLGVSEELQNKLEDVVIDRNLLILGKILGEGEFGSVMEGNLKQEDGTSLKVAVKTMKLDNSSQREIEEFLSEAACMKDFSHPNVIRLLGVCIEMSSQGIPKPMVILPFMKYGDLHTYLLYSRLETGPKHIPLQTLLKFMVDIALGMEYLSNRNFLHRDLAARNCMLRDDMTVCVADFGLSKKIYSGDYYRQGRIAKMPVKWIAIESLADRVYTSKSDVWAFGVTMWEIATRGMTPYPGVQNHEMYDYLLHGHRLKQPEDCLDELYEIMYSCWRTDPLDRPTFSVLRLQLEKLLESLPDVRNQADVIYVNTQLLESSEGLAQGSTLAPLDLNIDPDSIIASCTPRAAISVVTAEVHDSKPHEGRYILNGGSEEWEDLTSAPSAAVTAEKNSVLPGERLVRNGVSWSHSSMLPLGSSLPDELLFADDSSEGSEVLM
Outline: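 IC50 reflects the drop in TR-FRET between Eu anti-phosphotyrosine antibody and labelled peptide after a 60-minute room-temperature reaction. Buffer was 50 mM HEPES pH 7.5 with 10 mM MgCl2, 1 mM EGTA, 0.01% Brij 35 and 1 mM DTT, with ATP at Km per enzyme and EDTA quench.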

[2] = target: T2, TYRO3 (Homo sapiens, UniProt Q06418); test: TR-FRET kinase activity assay, TYRO3; format: biochemical; conditions: ATP at Km, 60 minutes
T2 sequence (Q06418 41-890): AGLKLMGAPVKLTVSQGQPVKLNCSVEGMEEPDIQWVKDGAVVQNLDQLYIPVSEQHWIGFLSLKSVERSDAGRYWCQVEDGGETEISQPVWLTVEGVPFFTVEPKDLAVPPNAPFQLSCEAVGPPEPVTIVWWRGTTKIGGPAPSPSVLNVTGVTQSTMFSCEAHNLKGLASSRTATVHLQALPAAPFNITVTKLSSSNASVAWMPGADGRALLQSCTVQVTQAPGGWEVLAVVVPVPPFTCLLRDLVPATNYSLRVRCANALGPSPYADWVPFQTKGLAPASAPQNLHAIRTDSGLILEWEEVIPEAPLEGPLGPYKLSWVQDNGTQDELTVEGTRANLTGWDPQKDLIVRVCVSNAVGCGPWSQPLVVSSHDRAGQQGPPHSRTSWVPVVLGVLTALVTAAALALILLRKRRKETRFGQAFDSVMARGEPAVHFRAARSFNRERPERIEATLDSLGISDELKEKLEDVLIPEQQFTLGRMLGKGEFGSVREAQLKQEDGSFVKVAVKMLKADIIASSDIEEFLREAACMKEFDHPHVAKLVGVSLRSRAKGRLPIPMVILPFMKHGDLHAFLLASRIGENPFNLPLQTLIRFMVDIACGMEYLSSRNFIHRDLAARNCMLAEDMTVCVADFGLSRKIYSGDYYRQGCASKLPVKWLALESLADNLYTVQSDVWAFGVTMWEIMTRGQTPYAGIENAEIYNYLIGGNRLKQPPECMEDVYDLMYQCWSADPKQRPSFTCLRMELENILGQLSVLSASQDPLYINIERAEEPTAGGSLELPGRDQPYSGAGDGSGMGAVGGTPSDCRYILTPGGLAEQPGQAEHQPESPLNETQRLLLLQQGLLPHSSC
Method: IC50 values for compound inhibition of AXL, FLT3, MERTK and TYRO3 activity were determined by using a TR-FRET activity assay. A polypeptide substrate with a fluorescent label is phosphorylated on a tyrosine by each enzyme, where the now phosphorylated product is bound by a Europium-labeled antibody specific to that phosphorylation site. The proximity between the antibody and the substrate gives a signal known as TR-FRET. As the enzyme is inhibited by compound, less phosphorylated peptide product is made causing a decrease in overall signal.
Activity assays were performed in a 384-well, small volume, black microplates in an active enzyme volume of 10 μL and final developed volume of 20 μL. Final assay conditions are 50 mM HEPES pH 7.5, 10 mM MgCl2, 1 mM EGTA, 0.01% Brij 35 and 1 mM DTT all at RT. Enzyme, substrate labeled peptide and compound are mixed, and then the reaction is initiated with the addition of ATP at Km concentration for each enzyme. The reaction is allowed to run 60 minutes and then quenched with a 12.5 mM EDTA (ethylenediamine tetraacetic acid) solution. The plate is then developed with the addition of Europium labeled antibody for a final volume of 20 μL and is then incubated for 30 minutes in darkness. Plates are read in a Pherastar plate reader. Data is analyzed in GraphPad PRISM.
The results of these assays are shown in Table 1, below, wherein “No.” designates compound number (FIG. 1); “A” represents a value of ≤100 nM; “B” a value of >100 nM and ≤1 μM; “C” a value of >1 μM and ≤10 μM; “D” a value of >10 μM; “ND” is not determined. The ratio of Mer to FLT3 is calculated as follows: FLT3 IC50/Mer IC50. “+” represents a ratio of >2.0 and <10; “++” represents a ratio of between 10 and 100; and “+++” represents a ratio of >100.

| IC50 [1] | FLT3/Mer ratio (FLT3 IC50/Mer IC50) [1] | IC50 [2] | Structure (SMILES) |
| --- | --- | --- | --- |
| ≤ 100 nM | +++ (“+++” represents a ratio of >100) | ≤ 100 nM | COC[C@H](C)Nc1ncc2c(-c3ccc(C(=O)N4CCS(=O)(=O)CC4)cc3)cc([C@H]3CC[C@H](O)CC3)n2n1 [Compound 197] |
| ≤ 100 nM | +++ (“+++” represents a ratio of >100) | ≤ 100 nM | COC[C@H](C)Nc1ncc2c(-c3cnn(CC(=O)N(C)C)c3)cc([C@H]3CC[C@H](O)CC3)n2n1 [Compound 238] |
| ≤ 100 nM | +++ (“+++” represents a ratio of >100) | ≤ 100 nM | COC[C@H](C)Nc1ncc2c(-c3cncc(F)c3)cc([C@H]3CC[C@H](O)CC3)n2n1 [Compound 195] |
| ≤ 100 nM | +++ (“+++” represents a ratio of >100) | ≤ 100 nM | COC[C@H](C)Nc1ncc2c(-c3cncc(C(N)=O)c3)cc([C@H]3CC[C@H](O)CC3)n2n1 [Compound 247] |
| ≤ 100 nM | +++ (“+++” represents a ratio of >100) | 100 to 1000 nM | CCCCC[C@H](C)Nc1ncc2c([C@H]3CC[C@H](C(=O)N4CCOCC4)CC3)cc([C@H]3CC[C@H](O)CC3)n2n1 [Compound 108] |
| ≤ 100 nM | +++ (“+++” represents a ratio of >100) | ≤ 100 nM | COC[C@H](C)Nc1ncc2c(-c3cnn(CC(=O)N4CCN(C)CC4)c3)cc([C@H]3CC[C@H](O)CC3)n2n1 [Compound 240] |
| ≤ 100 nM | +++ (“+++” represents a ratio of >100) | ≤ 100 nM | COCCn1cc(-c2cc([C@H]3CC[C@H](O)CC3)n3nc(N[C@@H](C)CC(F)(F)F)ncc23)cn1 [Compound 262] |
| ≤ 100 nM | +++ (“+++” represents a ratio of >100) | ≤ 100 nM | COC[C@H](C)Nc1ncc2c(-c3ccc(C(=O)NC(C)C)nc3)cc([C@H]3CC[C@H](O)CC3)n2n1 [Compound 228, 5-(7-((1r,4S)-4-hydroxycyclohexyl)-2-(((S)-1-methoxypropan-2-yl)amino)pyrrolo[2,1-f][1,2,4]triazin-5-yl)-N-isopropylpicolinamide] |
| ≤ 100 nM | +++ (“+++” represents a ratio of >100) | ≤ 100 nM | COC[C@H](C)Nc1ncc2c(-c3ccc(C(=O)N4CCCC4)cc3)cc([C@H]3CC[C@H](O)CC3)n2n1 [Compound 196] |
| ≤ 100 nM | +++ (“+++” represents a ratio of >100) | ≤ 100 nM | COC[C@H](C)Nc1ncc2c(-c3cncc(CN4CCOCC4)c3)cc([C@H]3CC[C@H](O)CC3)n2n1 [Compound 219] |
| ≤ 100 nM | +++ (“+++” represents a ratio of >100) | ≤ 100 nM | COC[C@H](C)Nc1ncc2c(-c3cncc(C(=O)N4CCOCC4)c3)cc([C@H]3CC[C@H](O)CC3)n2n1 [Compound 233] |

Further lines, the compound ahead of its results:

| Structure (SMILES) | IC50 [1] | FLT3/Mer ratio (FLT3 IC50/Mer IC50) [1] | IC50 [2] |
| --- | --- | --- | --- |
| COC[C@H](C)Nc1ncc2c(-c3ccc(N4CCN(C)CC4)nc3)cc([C@H]3CC[C@H](O)CC3)n2n1 [Compound 271] | ≤ 100 nM | ++ (“++” represents a ratio of between 10 and 100) | ≤ 100 nM |
| C[C@@H](CC(F)(F)F)Nc1ncc2c(-c3ccc(CN4CCOCC4)cc3)cc([C@H]3CC[C@H](O)CC3)n2n1 [Compound 203] | ≤ 100 nM | ++ (“++” represents a ratio of between 10 and 100) | ≤ 100 nM |
| COC[C@H](C)Nc1ncc2c(-c3cnn(C(C)(C)C)c3)cc([C@H]3CC[C@H](O)CC3)n2n1 [Compound 206] | ≤ 100 nM | +++ (“+++” represents a ratio of >100) | ≤ 100 nM |
| COC[C@H](C)Nc1ncc2c(-c3cccc(CN4CCN(C)CC4)c3)cc([C@H]3CC[C@H](O)CC3)n2n1 [Compound 218] | ≤ 100 nM | +++ (“+++” represents a ratio of >100) | ≤ 100 nM |
| CC(CCOC(F)F)Nc1ncc2c(-c3ccc(CN4CCOCC4)cc3)cc(C3CCC(O)CC3)n2n1 (stereo not drawn) [Compound 255] | ≤ 100 nM | ++ (“++” represents a ratio of between 10 and 100) | ≤ 100 nM |
| COCC(C)Nc1ncc2c(-c3ccc4nccn4c3)cc(C3CCC(O)CC3)n2n1 (stereo not drawn) [Compound 193] | ≤ 100 nM | +++ (“+++” represents a ratio of >100) | ≤ 100 nM |
| COC[C@H](C)Nc1ncc2c(-c3ccc(C)cn3)cc([C@H]3CC[C@H](O)CC3)n2n1 [Compound 258] | ≤ 100 nM | ++ (“++” represents a ratio of between 10 and 100) | ≤ 100 nM |
| CNC(=O)c1ccc(-c2cc([C@H]3CC[C@H](O)CC3)n3nc(N[C@@H](C)CC(F)(F)F)ncc23)cn1 [Compound 263] | ≤ 100 nM | ++ (“++” represents a ratio of between 10 and 100) | ≤ 100 nM |
| COC[C@H](C)Nc1ncc2c(-c3cnn(CC(=O)N[C@H]4CCOC4)c3)cc([C@H]3CC[C@H](O)CC3)n2n1 [Compound 237] | ≤ 100 nM | +++ (“+++” represents a ratio of >100) | ≤ 100 nM |
| COC[C@H](C)Nc1ncc2c(-c3cnn(CC(=O)N4CCCC4)c3)cc([C@H]3CC[C@H](O)CC3)n2n1 [Compound 239] | ≤ 100 nM | +++ (“+++” represents a ratio of >100) | ≤ 100 nM |
| COC[C@H](C)Nc1ncc2c(-c3ccnc(N4CCOCC4)c3)cc([C@H]3CC[C@H](O)CC3)n2n1 [Compound 259] | ≤ 100 nM | +++ (“+++” represents a ratio of >100) | ≤ 100 nM |
